Results reported in patent US5036071A, “Derivatives of purine” (Medivir AB, priority 1984, dated 1991).

Tests used:
HSV-2 strain 91075 = test: Treatment of a systemic HSV-2 infection in mice (mortality); assay type: in vivo; conditions: oral; for Mortality (%) day 6 / Mortality (%) day 9 / Mortality (%) day 12 / Mortality (%) day 15: twice daily for ten days; for Mortality (%) day 6: day 6 post infection; for Mortality (%) day 9: day 9 post infection; for Mortality (%) day 12: day 12 post infection; for Mortality (%) day 15: day 15 post infection
Description: In the following the compound (R)-(+)-9-(3,4-dihydroxybutyl)guanine is denoted VIS 743, the compound (R)-2-amino-9-(3,4-dihydroxybutyl)purine is denoted VSA 305 and Herpes simplex type 2 virus is denoted HSV-2. Mice infected systemically with HSV-2 strain 91075 (10^4 pfu infected i.p.) were treated orally with VIS 743 or VSA 305 twice daily for ten days. Treatment started 1 hour post infection. Mortality was determined on several days post infection.

[1] = Plasma concentration of VIS 743 in mice after giving VIS 743 or VSA 305 orally; assay type: in vivo; conditions: 15 mg/kg p.o.
Description: Mice were given VIS 743 or VSA 305 p.o. Each compound was given in a dosage of 15 mg/kg. The plasma concentrations of VIS 743 were determined by analysis on HPLC, 30, 60, 90 and 120 min after dosage. Each concentration was determined as an average of results from two mice.

With `Nc1ncc2ncn(CC[C@@H](O)CO)c2n1` [VSA 305, (R)-2-amino-9-(3,4-dihydroxybutyl)purine] the “Mortality (%) day 6” value (HSV-2 strain 91075; 15 mg/kg) was 0%, the “Mortality (%) day 9” value (HSV-2 strain 91075; 15 mg/kg) was 45% and the “Mortality (%) day 12” value (HSV-2 strain 91075; 15 mg/kg) was 50%. For the same compound, the “Mortality (%) day 15” value (HSV-2 strain 91075; 15 mg/kg) was 53%, the “effect of a low dose (15 mg/kg) compared with a high dose of VIS 743 (30 mg/kg)” value (HSV-2 strain 91075; VSA 305 15 mg/kg vs VIS 743 30 mg/kg) was “comparable” and the “biological transformation to VIS 743” value [1] was “biologically transformed to VIS 743”.

With `Nc1nc2c(ncn2CC[C@@H](O)CO)c(=O)[nH]1` [VIS 743, (R)-(+)-9-(3,4-dihydroxybutyl)guanine] the “Mortality (%) day 6” value (HSV-2 strain 91075; 15 mg/kg) was 40%, the “Mortality (%) day 9” value (HSV-2 strain 91075; 15 mg/kg) was 80% and the “Mortality (%) day 12” value (HSV-2 strain 91075; 15 mg/kg) was 100%. The “Mortality (%) day 15” value (HSV-2 strain 91075; 15 mg/kg) was 100%, the “Mortality (%) day 6” value (HSV-2 strain 91075; 30 mg/kg) was 0% and the “Mortality (%) day 9” value (HSV-2 strain 91075; 30 mg/kg) was 28%. The “Mortality (%) day 12” value (HSV-2 strain 91075; 30 mg/kg) was 45% and the “Mortality (%) day 15” value (HSV-2 strain 91075; 30 mg/kg) was 53%.
